How the values were obtained:
[1] = biological target: T1, Progesterone receptor (Homo sapiens, UniProt P06401)
T1 sequence (P06401 whole entry): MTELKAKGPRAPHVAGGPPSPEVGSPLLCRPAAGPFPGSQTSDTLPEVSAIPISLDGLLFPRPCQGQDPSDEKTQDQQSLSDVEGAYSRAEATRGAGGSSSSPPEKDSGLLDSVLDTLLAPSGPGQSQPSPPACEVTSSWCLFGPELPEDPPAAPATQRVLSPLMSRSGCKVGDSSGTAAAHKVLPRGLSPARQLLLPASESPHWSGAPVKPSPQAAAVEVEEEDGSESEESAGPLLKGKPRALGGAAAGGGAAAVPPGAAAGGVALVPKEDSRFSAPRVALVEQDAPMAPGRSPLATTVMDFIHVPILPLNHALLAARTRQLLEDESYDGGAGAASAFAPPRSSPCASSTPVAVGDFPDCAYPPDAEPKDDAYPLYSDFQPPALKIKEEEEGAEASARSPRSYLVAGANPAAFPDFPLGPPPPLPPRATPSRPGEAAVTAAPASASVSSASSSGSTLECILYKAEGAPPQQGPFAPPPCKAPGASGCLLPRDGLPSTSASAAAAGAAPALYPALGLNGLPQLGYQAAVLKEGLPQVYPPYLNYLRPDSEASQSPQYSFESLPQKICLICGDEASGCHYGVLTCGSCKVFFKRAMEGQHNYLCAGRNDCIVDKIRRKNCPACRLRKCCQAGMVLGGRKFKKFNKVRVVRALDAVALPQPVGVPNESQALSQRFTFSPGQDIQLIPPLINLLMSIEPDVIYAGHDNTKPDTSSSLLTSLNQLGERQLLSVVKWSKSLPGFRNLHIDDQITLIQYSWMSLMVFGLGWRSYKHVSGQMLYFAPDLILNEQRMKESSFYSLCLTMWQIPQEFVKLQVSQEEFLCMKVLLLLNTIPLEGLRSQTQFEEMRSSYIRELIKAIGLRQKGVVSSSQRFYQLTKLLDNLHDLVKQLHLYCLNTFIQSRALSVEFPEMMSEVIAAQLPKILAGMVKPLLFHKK

[2] = biological target: T2, 5-hydroxytryptamine receptor 1A (Homo sapiens, UniProt P08908)
T2 sequence (P08908 whole entry): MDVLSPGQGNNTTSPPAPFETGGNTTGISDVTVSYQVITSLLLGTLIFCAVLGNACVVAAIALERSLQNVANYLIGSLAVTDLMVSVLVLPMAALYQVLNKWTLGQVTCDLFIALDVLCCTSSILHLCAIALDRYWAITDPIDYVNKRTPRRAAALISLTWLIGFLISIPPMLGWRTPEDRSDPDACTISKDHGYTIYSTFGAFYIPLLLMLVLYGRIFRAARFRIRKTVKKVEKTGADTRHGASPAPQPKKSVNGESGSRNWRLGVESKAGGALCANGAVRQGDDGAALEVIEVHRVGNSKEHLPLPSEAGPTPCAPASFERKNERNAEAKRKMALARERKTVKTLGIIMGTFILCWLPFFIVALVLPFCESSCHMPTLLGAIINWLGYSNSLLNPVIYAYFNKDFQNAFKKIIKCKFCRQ

[3] = biological target: Beta-3 adrenergic receptor (Homo sapiens, UniProt P13945)
Beta-3 adrenergic receptor, sequence (P13945 whole entry): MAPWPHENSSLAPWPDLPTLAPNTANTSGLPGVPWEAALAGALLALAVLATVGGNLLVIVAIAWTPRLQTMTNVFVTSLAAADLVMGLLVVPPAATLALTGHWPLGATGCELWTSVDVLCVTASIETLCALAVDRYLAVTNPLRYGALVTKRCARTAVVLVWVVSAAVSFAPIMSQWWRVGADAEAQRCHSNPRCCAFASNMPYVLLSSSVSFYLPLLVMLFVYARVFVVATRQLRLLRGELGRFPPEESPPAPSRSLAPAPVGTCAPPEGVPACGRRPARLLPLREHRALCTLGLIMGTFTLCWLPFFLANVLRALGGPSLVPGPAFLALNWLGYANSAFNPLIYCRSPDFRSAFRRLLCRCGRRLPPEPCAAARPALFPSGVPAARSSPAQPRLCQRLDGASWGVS

[4] = biological target: T3, Corticotropin-releasing factor receptor 1 (Homo sapiens, UniProt P34998)
T3 sequence (P34998 whole entry): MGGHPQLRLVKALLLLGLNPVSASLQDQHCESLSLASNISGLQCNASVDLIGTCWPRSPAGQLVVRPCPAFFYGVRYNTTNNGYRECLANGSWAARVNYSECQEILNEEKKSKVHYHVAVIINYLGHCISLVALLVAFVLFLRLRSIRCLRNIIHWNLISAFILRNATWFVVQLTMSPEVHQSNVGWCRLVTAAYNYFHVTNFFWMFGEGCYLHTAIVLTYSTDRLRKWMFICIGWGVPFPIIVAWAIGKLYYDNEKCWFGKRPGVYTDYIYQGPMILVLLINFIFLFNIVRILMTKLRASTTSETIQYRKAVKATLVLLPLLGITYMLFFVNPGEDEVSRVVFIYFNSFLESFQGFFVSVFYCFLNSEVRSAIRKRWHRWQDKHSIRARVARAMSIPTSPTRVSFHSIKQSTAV

[5] = biological target: T4, Endothelin receptor type B (Homo sapiens, UniProt P24530)
T4 sequence (P24530 whole entry): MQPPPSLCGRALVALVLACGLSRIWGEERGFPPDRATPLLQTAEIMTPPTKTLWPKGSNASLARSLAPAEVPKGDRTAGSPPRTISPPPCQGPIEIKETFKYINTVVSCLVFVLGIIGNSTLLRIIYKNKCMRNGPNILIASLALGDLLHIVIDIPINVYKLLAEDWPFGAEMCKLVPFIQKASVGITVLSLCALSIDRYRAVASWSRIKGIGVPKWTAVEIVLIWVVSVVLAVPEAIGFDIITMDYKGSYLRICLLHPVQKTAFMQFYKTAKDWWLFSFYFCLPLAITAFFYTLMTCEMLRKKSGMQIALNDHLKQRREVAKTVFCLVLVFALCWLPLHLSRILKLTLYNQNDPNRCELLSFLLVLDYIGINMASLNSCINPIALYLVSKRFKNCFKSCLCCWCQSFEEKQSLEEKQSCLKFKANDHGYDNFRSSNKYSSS

[6] = biological target: T5, Neuropeptide Y receptor type 2 (Homo sapiens, UniProt P49146)
T5 sequence (P49146 whole entry): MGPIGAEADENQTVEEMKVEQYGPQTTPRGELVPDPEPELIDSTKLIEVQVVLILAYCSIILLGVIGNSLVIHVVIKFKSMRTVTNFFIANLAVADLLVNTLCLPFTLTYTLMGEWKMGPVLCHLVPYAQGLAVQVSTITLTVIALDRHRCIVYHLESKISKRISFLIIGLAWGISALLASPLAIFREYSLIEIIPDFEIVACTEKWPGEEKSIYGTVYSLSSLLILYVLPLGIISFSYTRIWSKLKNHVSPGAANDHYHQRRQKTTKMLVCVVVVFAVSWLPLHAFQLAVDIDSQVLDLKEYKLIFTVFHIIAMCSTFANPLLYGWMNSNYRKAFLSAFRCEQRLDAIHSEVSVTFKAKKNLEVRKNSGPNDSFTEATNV

[7] = biological target: Neurotensin receptor type 1 (Homo sapiens, UniProt P30989)
Neurotensin receptor type 1, sequence (P30989 whole entry): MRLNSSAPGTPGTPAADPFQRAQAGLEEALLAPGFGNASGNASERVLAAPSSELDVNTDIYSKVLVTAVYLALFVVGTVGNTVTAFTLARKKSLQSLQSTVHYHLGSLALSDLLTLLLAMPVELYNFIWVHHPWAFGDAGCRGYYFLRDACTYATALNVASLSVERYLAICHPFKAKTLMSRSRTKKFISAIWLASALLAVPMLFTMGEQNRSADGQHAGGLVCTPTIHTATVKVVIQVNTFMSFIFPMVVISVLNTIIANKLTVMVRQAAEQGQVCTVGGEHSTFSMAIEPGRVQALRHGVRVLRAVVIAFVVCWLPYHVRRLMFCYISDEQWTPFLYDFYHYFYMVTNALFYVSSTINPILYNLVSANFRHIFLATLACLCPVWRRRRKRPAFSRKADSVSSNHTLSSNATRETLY
Note: assay procedure not described here.

Compound | AC50 [1] [µM] | AC50 [2] [µM] | AC50 [3] [µM] | AC50 [4] [µM] | AC50 [5] [µM] | AC50 [6] [µM] | AC50 [7] [µM]
O=C(O)c1cccc(-c2noc(-c3ccccc3F)n2)c1 | > 30 | > 10 |  |  |  |  | 
C[N+](C)(C)CCOC(N)=O [CARBAMOYLCHOLINE] |  | > 10 |  |  |  |  | 
CC(C)(N)Cc1ccc(Cl)cc1 [CHLORPHENTERMINE] | > 30 | > 10 | > 30 | > 30 | > 30 | > 30 | > 30
O=C(Nc1ccccc1)OCC(CN1CCCCC1)OC(=O)Nc1ccccc1 (centres undefined) [DIPERODON] | > 30 | > 10 | > 30 | > 30 | > 30 | > 30 | > 30
C=C1C[C@@H]2[C@H](CC[C@]3(C)C(=O)CC[C@@H]23)[C@@]2(C)C=CC(=O)C=C12 [EXEMESTANE] | 29.3 | > 10 | > 30 | > 30 | > 30 | > 30 | > 30
CC(=O)N(CC(O)CO)c1c(I)c(C(=O)NCC(O)CO)c(I)c(C(=O)NCC(O)CO)c1I (centres undefined) [IOHEXOL] | > 30 | > 10 |  |  |  |  | 
CN(C)CCCN1c2ccccc2Sc2ccccc21 [PROMAZINE] | > 30 | 4.37 | > 30 | > 30 | > 30 | > 30 | > 30
O=C(O)CCn1c2c(c3ccccc31)C[C@H](NS(=O)(=O)c1ccc(F)cc1)CC2 [RAMATROBAN] |  |  |  |  | > 10 | > 10 | 
O=P(O)(O)C(O)(Cc1cccnc1)P(=O)(O)O [RISEDRONIC ACID] | > 30 | > 10 | > 30 | > 30 | > 30 | > 30 | > 30
O=C1CCC(N2C(=O)c3ccccc3C2=O)C(=O)N1 (centres undefined) [THALIDOMIDE] | > 30 | > 10 | > 30 | > 30 | > 30 | > 30 | > 30

From ChEMBL document CHEMBL5291721, “A preclinical secondary pharmacology resource illuminates target-adverse drug reaction associations of marketed drugs” (Nat Commun, 2023)
